Series [1] in a line: Solubility of components in the exemplary compositions. The format is physicochemical. The following applies: in the current exemplary compositions. As to the method:
Additional experiments provided a greater understanding of the ability to achieve certain functional goals for the final composition. Evaluation of phosphorus, calcium, vitamin D, fluoride, xylitol, and the pH of the alkaline ionized water was performed as described below.

A short description of series [2]: Evaluation of calcium: bioavailability. The note with it: form of calcium.
The conditions of series [3]: cited from earlier work.

These results are taken from patent US20170035664A1, “FLAVOR-OPTIMIZED IONIZED WATER COMPOSITIONS” (priority 2015, published 2017).

Read-outs that look alike come from different tables or passages of the source.

For the molecule `CC(O)C(=O)[O-].O=C([O-])[C@H](O)[C@@H](O)[C@H](O)[C@H](O)CO.[Ca+2]` [Calcium lactate gluconate], in series [1], the solubility entry is listed as “very soluble”. Besides, the bioavailability entry in series [2] is “bioavailable”.

On to `OC[C@@H](O)[C@H](O)[C@@H](O)CO` [xylitol], for which the figures for the dosage causing diarrhea in series [3] (adults) and in series [3] (children) were 100 g/day and 45 g/day, respectively. Besides, the tolerated amount in series [3] (most adults) is given as 40 g/day.

vitamin D: the solubility entry in series [1] is listed as “not soluble”.
